This note sets out measurements from PMC4270692, “Using a Non-Image-Based Medium-Throughput Assay for Screening Compounds Targeting N-myristoylation in Intracellular Leishmania Amastigotes” (PLoS Neglected Tropical Diseases, 2014).

Entries after “also recorded” stand apart in the source; their conditions may differ. Read-outs that look alike come from different tables or passages of the source.

Series [1] relates to intracellular L. donovani amastigotes. Nature of the series: Intracellular amastigote assay: infected macrophages treated 72 h, saponin lysis, transformation to promastigotes, Alamar blue. The conditions noted are these: for Effect on intracellular amastigotes at the highest concentration tested: 45 µM, after an "activity valley" at 15 µM; for EC50: Leishmania donovani, Macrophage. It is filed as cell-based, Leishmania donovani.

Series [2] has as its system extracellular L. donovani amastigotes. Description: Extracellular assay on amastigotes freshly isolated from mouse spleens, 72 h at 26°C, Alamar blue. It is filed as cell-based, Leishmania donovani. The conditions noted are these: for EC50: Leishmania donovani; for Cellular (leishmanicidal) activity in words: extracellular assay. A general note: Resazurin is reduced to fluorescent resorufin, in cell work by metabolically active cells.

Series [3] concerns bone marrow derived macrophages.
The target in another series is L. donovani NMT (Leishmania donovani, UniProt D0AB09). Nature of the series: biochemical. It is filed as biochemical.
Chain of L. donovani NMT (D0AB09 1-421): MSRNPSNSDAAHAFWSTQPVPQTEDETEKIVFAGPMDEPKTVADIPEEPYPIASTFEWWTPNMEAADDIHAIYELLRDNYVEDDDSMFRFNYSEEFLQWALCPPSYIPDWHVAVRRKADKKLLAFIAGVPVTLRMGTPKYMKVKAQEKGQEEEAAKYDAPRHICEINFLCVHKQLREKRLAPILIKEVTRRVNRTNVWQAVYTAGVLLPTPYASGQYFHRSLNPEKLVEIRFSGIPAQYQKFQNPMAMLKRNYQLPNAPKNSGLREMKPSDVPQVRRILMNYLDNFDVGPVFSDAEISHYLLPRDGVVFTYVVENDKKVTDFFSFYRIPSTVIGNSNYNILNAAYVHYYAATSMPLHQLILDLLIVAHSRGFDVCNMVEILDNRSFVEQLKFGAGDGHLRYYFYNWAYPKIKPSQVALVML
The mark [4] stands for this setting: NMT inhibitors, 72 h in infected macrophages, n.p. = not possible.
Where [5] appears, read: NMT inhibitors, 72 h at 26°C, read-out: EC50 extracellular L. donovani amastigotes.
The mark [6] stands for this setting: 72 h, 3-day treatment of infected bone marrow derived macrophages, mean of biological repeats, read-out: EC50 ± SD intracellular L. donovani amastigotes.
The mark [7] stands for this setting: Figure 3, representative dose response curve, 72 h incubation, read-out: EC50 intracellular L. donovani amastigotes, representative plot.
[8] abbreviates: 72 h, 3-day treatment, splenic amastigotes from Rag2−/− mice, incubation at 26°C, read-out: EC50 ± SD extracellular L. donovani amastigotes.
The mark [9] stands for this setting: 72 h, read-out: EC50 extracellular L. donovani amastigotes.

Turning to `Cc1nn(C)c(C)c1NS(=O)(=O)c1c(Cl)cc(-c2ccnc(N3CCN(C)CC3)c2)cc1Cl` [DDD86211], in series [1], the “Effect on intracellular amastigotes at the highest concentration tested” value is “complete killing of the parasites; also recorded: all amastigotes cleared from the macrophages”. Also, in series [1] (setting [4]), the “EC50 intracellular L. donovani amastigotes” value is listed as “n.p”. In addition, in series [2] (setting [5]), the EC50 stood at 180 nM. Besides, the “LD50 bone marrow derived macrophages” value in series [3] (female, BALB/c, mouse, 72 h) was above 45 µM.
In the case of `c1cncc(CCNCc2cccc(-c3cccc(CN4CCc5ncsc5C4)c3)c2)c1` [IMP-0000197], the “Activity in the intracellular assay (in words)” value in series [1] is on record as “no activity”. Besides, the EC50 in series [2] (setting [5]) stood at 16000 nM. In series [2], the “Cellular (leishmanicidal) activity in words” value is recorded as “moderate cellular activity”. The “Concentration up to which no host cell cytotoxicity was seen” value in series [3] is “at least 45 µM”. Moreover, in series [3] (female, BALB/c, mouse, 72 h), the “LD50 bone marrow derived macrophages” value is 50 µM.
`CN1CCC(N(C)c2nc(N(C)CCC#N)c3sccc3n2)CC1` [IMP-0000083] registered an IC50 against L. donovani NMT of 281 nM. At L. donovani NMT (relative to IMP-0000195), the “Fold less potent in inhibition of LdNMT than IMP-0000195” value is around 4 fold. The “Activity in the intracellular assay (in words)” value in series [1] is “no activity”. Further, in series [2] (setting [5]), the EC50 was 24000 nM. In series [2], the “Cellular (leishmanicidal) activity in words” value was “moderate cellular activity”. Also, in series [3], the “Host cell toxicity (in words)” value is “no toxicity to host cells”. The “LD50 bone marrow derived macrophages” value in series [3] (72 h) was above 45 µM. Further, the “Concentration up to which no host cell cytotoxicity was seen” value in series [3] (female, BALB/c, mouse, 72 h) is “at least 45 µM”.
Consider `N[C@@H](CC(=O)N1C[C@H](CO)[C@@H](c2ccc(Cl)cc2)C1)Cc1ccc(Cl)cc1` [IMP-0000195], for which the IC50 at L. donovani NMT (read-out: IC50 L. donovani NMT) was 76.5 nM. The EC50 in series [2] (setting [5]) was determined as 12000 nM. The “LD50 bone marrow derived macrophages” value in series [3] (female, BALB/c, mouse, 72 h) worked out at 12 µM. Also, in series [3] (macrophages), the “Host cell toxicity (in words)” value is “equally toxic to macrophages; also recorded: host cell toxicity and no selectivity”.
On to `CCCCCCCCCCCCCCCCOP(=O)([O-])OCC[N+](C)(C)C` [Miltefosine, miltefosine], for which the EC50 amounted to 1380 ± 60 nM in series [1] (setting [6]), 1450 nM in series [1] (setting [7]) and 7850 ± 500 nM in series [2] (setting [8]).
For the molecule `O=C(Cc1ccc(F)cc1)Nc1ccc2[nH]cc(C3CCNCC3)c2c1` [IMP-0000556], the EC50 in series [2] (setting [9]) is above 30000 nM. In addition, the “Cellular (leishmanicidal) activity in words” value in series [2] is “did not result in any leishmanicidal activity”. In addition, the “LD50 bone marrow derived macrophages” value in series [3] (female, BALB/c, mouse, 72 h) is recorded as above 45 µM.
Consider `Cc1nn(C)c(C)c1NS(=O)(=O)c1c(Cl)cc(-c2ccnc(N3CCNCC3)c2)cc1Cl` [DDD85646], for which the “Effect on intracellular amastigotes at the highest concentration tested” value in series [1] is listed as “complete killing of the parasites; also recorded: all amastigotes cleared from the macrophages”. The “EC50 intracellular L. donovani amastigotes” value in series [1] (setting [4]) is reported as “n.p”. For the same molecule, the EC50 in series [2] (setting [9]) stood at 8000 nM. Further, the “LD50 bone marrow derived macrophages” value in series [3] (72 h) is above 45 µM.
On to `Cc1nn(C)c(C)c1N(C(F)F)[S+](=O)([O-])c1c(Cl)cc(-c2ccnc(N3CCNCC3)c2)cc1Cl` [DDD100887], for which the EC50 in series [1] (NMT inhibitors, 72 h in infected macrophages, n.p. = not possible, read-out: EC50 intracellular L. donovani amastigotes) was determined as 190 nM; in series [2] (setting [5]) it was 660 nM. The “LD50 bone marrow derived macrophages” value in series [3] (female, BALB/c, mouse, 72 h) amounted to 23 µM.
As to `C[C@@H]1[C@H](O)[C@@H](C)/C=C/C=C/C=C/C=C/C=C/C=C/C=C/[C@H](O[C@@H]2O[C@H](C)[C@@H](O)[C@H](N)[C@@H]2O)C[C@@H]2O[C@](O)(C[C@@H](O)C[C@@H](O)[C@H](O)CC[C@@H](O)C[C@@H](O)CC(=O)O[C@H]1C)C[C@H](O)[C@H]2C(=O)O` [Amphotericin B, amphotericin B], the values for the EC50 in series [1] (setting [6]), in series [1] (setting [7]) and in series [2] (setting [8]) were 30 ± 9 nM, 29 nM and 50 ± 11 nM, respectively.

A word on the EC50: it is the concentration giving half of the maximal effect. As a reminder, the IC50 is the concentration that gives 50% inhibition.
